From patent publication US20240174618A1, “SUBSTITUTED (2-HETEROARYLOXYPHENYL)SULFONATES, SALTS THEREOF AND THEIR USE AS HERBICIDAL AGENTS” (Bayer Aktiengesellschaft, priority 2021, published 2024)

Experiments:
Assay type in all cases: in vivo
[1] = test system: Amaranthus retroflexus (AMARE); assay: B. Herbicidal post-emergence efficacy, AMARE
How it was run: (§1)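 Weeds grown in sandy loam in greenhouse and sprayed at the one-leaf stage, 2–3 weeks after sowing, with WP or EC formulations plus 0.5% additive at 600 L/ha water. Injury rated visually versus untreated controls after about 3 weeks (100% = dead, 0% = like control); rates up to 1280 g/ha.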

[2] = test system: Digitaria sanguinalis (DIGSA); assay: A. Herbicidal pre-emergence efficacy, DIGSA; details: scored visually after about 3 weeks vs untreated controls
How it was run: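 Pre-emergence soil-surface spray in sandy loam pots, WP/EC in water plus 0.5% additive, 600 L/ha. Visual % damage rating after about 3 weeks in greenhouse vs. untreated; 0% = control-like, 100% = dead plants. Rates up to 1280 g/ha.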

[3] = test system: Abutilon theophrasti (ABUTH); assay: E. Herbicidal post-emergence efficacy, ABUTH
How it was run: (§2)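 Greenhouse weeds were treated post-emergence at the one-leaf stage, 2-3 weeks after sowing in sandy loam, with WP or EC formulations sprayed as aqueous suspension/emulsion plus 0.5% additive at 600 l/ha, at 320 g/ha or less. Efficacy was rated visually after about 3 weeks versus untreated controls (100% = dead, 0% = like control).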

Viola tricolor (VIOTR) = assay: E. Herbicidal post-emergence efficacy, VIOTR
How it was run: as §2

[4] = test system: Alopecurus myosuroides (ALOMY); assay: C. Herbicidal pre-emergence efficacy, ALOMY; details: scored after about 3 weeks
How it was run: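 Pre-emergence test: formulated compounds sprayed as aqueous suspension or emulsion with 0.5% additive at 600 l/ha onto soil covering sown seeds, at rates corresponding to 320 g/ha or less. After about 3 weeks in greenhouse, efficacy scored visually as percent versus untreated controls (100% = plants dead).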

[5] = test system: Pharbitis purpurea (PHBPU); assay: E. Herbicidal post-emergence efficacy, PHBPU
How it was run: as §2

Stellaria media (STEME) = assay: B. Herbicidal post-emergence efficacy, STEME
How it was run: as §1

Veronica persica (VERPE) = assay: B. Herbicidal post-emergence efficacy, VERPE
How it was run: as §1

In the case of `O=S(=O)(CC1CC(F)(F)C1)Oc1c(F)cccc1Oc1ncc(Cl)cn1` [Example I-53], the “Post-emergence efficacy against AMARE” value ([1]; 80 g/ha) is reported as 90%, the “Post-emergence efficacy against AMARE” value ([1]; 320 g/ha) is reported as 90% and the “Post-emergence efficacy against AMARE” value ([1]; 1280 g/ha) is reported as 90%. For the same compound, the “Pre-emergence efficacy against DIGSA” value ([2]; 80 g/ha) was 100%, the “Pre-emergence efficacy against DIGSA” value ([2]; 320 g/ha) was 100% and the “Pre-emergence efficacy against DIGSA” value ([2]; 1280 g/ha) was 100%. For the same compound, the “Post-emergence efficacy against ABUTH in %” value ([3]; application rate 80 g/ha) was 100%, the “Post-emergence efficacy against ABUTH in %” value ([3]; application rate 320 g/ha) was 100% and the “Post-emergence efficacy against VIOTR in %” value (Viola tricolor (VIOTR); application rate 80 g/ha) was 100%. For the same compound, the “Post-emergence efficacy against VIOTR in %” value (Viola tricolor (VIOTR); application rate 320 g/ha) was 100%, the “Pre-emergence efficacy against ALOMY” value ([4]; 80 g/ha) was 90% and the “Pre-emergence efficacy against ALOMY” value ([4]; 320 g/ha) was 100%. For the same compound, the “Post-emergence efficacy against PHBPU in %” value ([5]; application rate 80 g/ha) was 100%, the “Post-emergence efficacy against PHBPU in %” value ([5]; application rate 320 g/ha) was 100% and the “Post-emergence efficacy against STEME” value (Stellaria media (STEME); 80 g/ha) was 90%. The “Post-emergence efficacy against STEME” value (Stellaria media (STEME); 320 g/ha) was 90%, the “Post-emergence efficacy against STEME” value (Stellaria media (STEME); 1280 g/ha) was 90% and the “Post-emergence efficacy against VERPE” value (Veronica persica (VERPE); 80 g/ha) was 90%. The “Post-emergence efficacy against VERPE” value (Veronica persica (VERPE); 320 g/ha) was 90% and the “Post-emergence efficacy against VERPE” value (Veronica persica (VERPE); 1280 g/ha) was 90%.

In the case of `O=S(=O)(CCCC(F)F)Oc1c(F)cccc1Oc1ncc(Cl)cn1` [Example I-56], the “Post-emergence efficacy against AMARE” value ([1]; 80 g/ha) is reported as 90%, the “Post-emergence efficacy against AMARE” value ([1]; 320 g/ha) is reported as 90% and the “Post-emergence efficacy against AMARE” value ([1]; 1280 g/ha) is reported as 90%. For the same compound, the “Pre-emergence efficacy against DIGSA” value ([2]; 80 g/ha) was 100%, the “Pre-emergence efficacy against DIGSA” value ([2]; 320 g/ha) was 100% and the “Pre-emergence efficacy against DIGSA” value ([2]; 1280 g/ha) was 100%. The “Post-emergence efficacy against ABUTH in %” value ([3]; application rate 320 g/ha) was 100%, the “Post-emergence efficacy against VIOTR in %” value (Viola tricolor (VIOTR); application rate 80 g/ha) was 100% and the “Post-emergence efficacy against VIOTR in %” value (Viola tricolor (VIOTR); application rate 320 g/ha) was 100%. For the same compound, the “Pre-emergence efficacy against ALOMY” value ([4]; 80 g/ha) was 100%, the “Pre-emergence efficacy against ALOMY” value ([4]; 320 g/ha) was 100% and the “Post-emergence efficacy against PHBPU in %” value ([5]; application rate 80 g/ha) was 100%. The “Post-emergence efficacy against PHBPU in %” value ([5]; application rate 320 g/ha) was 100%, the “Post-emergence efficacy against STEME” value (Stellaria media (STEME); 80 g/ha) was 90% and the “Post-emergence efficacy against STEME” value (Stellaria media (STEME); 320 g/ha) was 90%. For the same compound, the “Post-emergence efficacy against STEME” value (Stellaria media (STEME); 1280 g/ha) was 90%, the “Post-emergence efficacy against VERPE” value (Veronica persica (VERPE); 80 g/ha) was 90% and the “Post-emergence efficacy against VERPE” value (Veronica persica (VERPE); 320 g/ha) was 90%. The “Post-emergence efficacy against VERPE” value (Veronica persica (VERPE); 1280 g/ha) was 90%.

`O=S(=O)(CCCC(F)(F)C(F)(F)F)Oc1c(F)cccc1Oc1ncc(Cl)cn1` [Example I-68] was tested, and the “Post-emergence efficacy against AMARE” value ([1]; 80 g/ha) was 100%, the “Post-emergence efficacy against AMARE” value ([1]; 320 g/ha) was 100% and the “Post-emergence efficacy against AMARE” value ([1]; 1280 g/ha) was 100%. The “Pre-emergence efficacy against DIGSA” value ([2]; 320 g/ha) was 90%, the “Pre-emergence efficacy against DIGSA” value ([2]; 1280 g/ha) was 100% and the “Post-emergence efficacy against ABUTH in %” value ([3]; application rate 320 g/ha) was 90%. The “Post-emergence efficacy against VIOTR in %” value (Viola tricolor (VIOTR); application rate 80 g/ha) was 100%, the “Post-emergence efficacy against VIOTR in %” value (Viola tricolor (VIOTR); application rate 320 g/ha) was 100% and the “Pre-emergence efficacy against ALOMY” value ([4]; 320 g/ha) was 90%. The “Post-emergence efficacy against PHBPU in %” value ([5]; application rate 80 g/ha) was 80%, the “Post-emergence efficacy against PHBPU in %” value ([5]; application rate 320 g/ha) was 90% and the “Post-emergence efficacy against STEME” value (Stellaria media (STEME); 80 g/ha) was 90%. The “Post-emergence efficacy against STEME” value (Stellaria media (STEME); 320 g/ha) was 100%, the “Post-emergence efficacy against STEME” value (Stellaria media (STEME); 1280 g/ha) was 100% and the “Post-emergence efficacy against VERPE” value (Veronica persica (VERPE); 80 g/ha) was 100%. The “Post-emergence efficacy against VERPE” value (Veronica persica (VERPE); 320 g/ha) was 100% and the “Post-emergence efficacy against VERPE” value (Veronica persica (VERPE); 1280 g/ha) was 100%.
